Results as given in US10975056B2 (GlaxoSmithKline Intellectual Property Development Limited, priority 2016, dated 2021).
pEC50, pIC50: −log10 of the molar value. Where two headings read alike, the source gives them in different places. Each block holds one compound with its values, some of them ahead of it.

Key:
[1] = system: erythroid progenitor cells; settings: cited from earlier work
[2] = system: patients with sickle cell anemia, sickle cell disease and beta-thalassemia; settings: limited set of clinical studies; cited from earlier work
DNMT3B = DNMT3B (Homo sapiens (Human), UniProt Q9UBC3); assay: DNMT3B breaklight assay; format: biochemical; settings: read-out: DNMT3B Breaklight IC50
MV-4-11 AML cells = assay: MV-4-11 cell proliferation assay (CellTiter-Glo, 6 days); format: cell-based; settings: Homo sapiens, MV4-11, 144 h; 6 days treatment; binning as pXC50; read-out: MV4-11 Anti-proliferative activity (EC50 category)
Protocol: MV-4-11 Anti-Proliferative Activity (pEC50 Category)
Cell proliferation assay. Optimal cell seeding density was determined empirically for MV-4-11 AML cells by examining the growth of a wide range of seeding densities in a 384-well format to identify conditions that permitted maximal and continued proliferation for 6 days. MV-4-11 cells were plated in duplicate plates 24 hours before treatment with a 20-point two-fold dilution series of compound or 0.15% DMSO. Plates were incubated for 6 days at 37° C. in 5% CO2. Cells were then lysed with CellTiter-Glo (CTG) (Promega) and chemiluminescent signal was detected with an appropriate microplate reader. In addition, an untreated plate of cells was harvested at the time of compound addition (T0) to quantify the initial cell density. CTG values obtained after 6 days of treatment were expressed as a percent of the T0 value and plotted against compound concentration. Data were fit with a four parameter equation to generate a concentration response curve from which growth IC50 values were calculated.

[3] = system: erythroid progenitor cells (EPCs); assay: Fetal hemoglobin (HbF) ELISA in day 7 erythroid progenitor cells; format: cell-based, human; settings: Homo sapiens, Erythroid progenitor cell, HbF ELISA, day 7 EPCs, 5 days; read-out: EPC ELISA (pEC50 category) (converted);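 also: for fetal hemoglobin induction normalized to vehicle-treated cells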
Method in brief: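 Read-out was OD450 from an HRP/TMB sandwich ELISA on lysates, normalized to DMSO-only control wells. Thawed day 7 EPCs from human marrow CD34+ cells had been treated for 5 days at 37° C with Compound A, 22 concentrations […].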

DNMT1 = DNMT1 (Homo sapiens, UniProt P26358); assay: DNMT1 biochemical activity, breaklight assay and/or SPA assay
DNMT1, sequence (P26358 whole entry, looked up): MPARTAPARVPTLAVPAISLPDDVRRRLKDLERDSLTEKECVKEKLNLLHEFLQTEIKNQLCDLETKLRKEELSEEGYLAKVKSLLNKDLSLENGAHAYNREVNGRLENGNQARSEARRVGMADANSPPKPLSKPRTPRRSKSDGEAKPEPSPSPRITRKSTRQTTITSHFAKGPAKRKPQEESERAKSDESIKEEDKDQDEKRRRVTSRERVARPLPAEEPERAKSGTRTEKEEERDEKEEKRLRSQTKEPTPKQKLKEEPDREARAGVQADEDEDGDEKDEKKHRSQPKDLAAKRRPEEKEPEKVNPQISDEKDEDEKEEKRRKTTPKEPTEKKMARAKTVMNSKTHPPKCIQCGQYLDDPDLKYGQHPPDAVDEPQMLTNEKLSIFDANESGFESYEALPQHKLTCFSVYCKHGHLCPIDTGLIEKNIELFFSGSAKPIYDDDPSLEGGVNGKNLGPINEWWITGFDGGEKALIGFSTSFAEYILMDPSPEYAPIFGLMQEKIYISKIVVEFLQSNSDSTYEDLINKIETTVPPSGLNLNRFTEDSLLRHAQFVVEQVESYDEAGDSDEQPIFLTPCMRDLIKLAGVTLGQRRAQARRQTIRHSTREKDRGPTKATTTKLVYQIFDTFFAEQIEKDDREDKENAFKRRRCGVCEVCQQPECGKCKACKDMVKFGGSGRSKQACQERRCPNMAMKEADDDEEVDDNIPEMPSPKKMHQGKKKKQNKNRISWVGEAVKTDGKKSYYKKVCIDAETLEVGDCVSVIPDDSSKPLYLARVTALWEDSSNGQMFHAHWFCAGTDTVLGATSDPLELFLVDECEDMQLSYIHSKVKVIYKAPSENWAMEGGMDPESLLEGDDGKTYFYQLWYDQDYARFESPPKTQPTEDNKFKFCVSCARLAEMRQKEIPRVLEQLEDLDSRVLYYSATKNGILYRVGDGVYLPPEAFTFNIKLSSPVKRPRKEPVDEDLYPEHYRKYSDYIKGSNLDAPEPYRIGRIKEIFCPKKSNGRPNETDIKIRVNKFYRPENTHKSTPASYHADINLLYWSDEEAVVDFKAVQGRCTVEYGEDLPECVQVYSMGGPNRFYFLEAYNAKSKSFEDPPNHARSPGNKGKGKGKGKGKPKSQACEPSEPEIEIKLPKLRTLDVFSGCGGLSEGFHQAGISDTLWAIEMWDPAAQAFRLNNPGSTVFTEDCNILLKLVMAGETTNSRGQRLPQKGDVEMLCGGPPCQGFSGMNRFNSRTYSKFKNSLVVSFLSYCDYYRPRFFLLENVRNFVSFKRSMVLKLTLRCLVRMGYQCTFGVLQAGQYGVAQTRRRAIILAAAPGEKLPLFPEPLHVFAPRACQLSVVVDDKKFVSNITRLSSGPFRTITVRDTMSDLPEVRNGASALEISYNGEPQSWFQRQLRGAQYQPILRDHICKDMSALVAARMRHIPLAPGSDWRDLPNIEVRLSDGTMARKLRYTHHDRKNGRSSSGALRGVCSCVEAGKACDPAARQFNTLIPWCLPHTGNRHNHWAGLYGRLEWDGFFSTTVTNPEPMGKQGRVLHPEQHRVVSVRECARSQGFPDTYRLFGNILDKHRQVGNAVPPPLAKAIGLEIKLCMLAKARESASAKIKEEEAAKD

human DNMT3a/3l = human DNMT3a/3l (Homo sapiens (Human), UniProt Q9Y6K1); assay: DNMT3a/3l breaklight assay; format: biochemical; settings: read-out: DNMT3A Breaklight IC50
human DNMT3a/3l, sequence (Q9Y6K1 whole entry, looked up): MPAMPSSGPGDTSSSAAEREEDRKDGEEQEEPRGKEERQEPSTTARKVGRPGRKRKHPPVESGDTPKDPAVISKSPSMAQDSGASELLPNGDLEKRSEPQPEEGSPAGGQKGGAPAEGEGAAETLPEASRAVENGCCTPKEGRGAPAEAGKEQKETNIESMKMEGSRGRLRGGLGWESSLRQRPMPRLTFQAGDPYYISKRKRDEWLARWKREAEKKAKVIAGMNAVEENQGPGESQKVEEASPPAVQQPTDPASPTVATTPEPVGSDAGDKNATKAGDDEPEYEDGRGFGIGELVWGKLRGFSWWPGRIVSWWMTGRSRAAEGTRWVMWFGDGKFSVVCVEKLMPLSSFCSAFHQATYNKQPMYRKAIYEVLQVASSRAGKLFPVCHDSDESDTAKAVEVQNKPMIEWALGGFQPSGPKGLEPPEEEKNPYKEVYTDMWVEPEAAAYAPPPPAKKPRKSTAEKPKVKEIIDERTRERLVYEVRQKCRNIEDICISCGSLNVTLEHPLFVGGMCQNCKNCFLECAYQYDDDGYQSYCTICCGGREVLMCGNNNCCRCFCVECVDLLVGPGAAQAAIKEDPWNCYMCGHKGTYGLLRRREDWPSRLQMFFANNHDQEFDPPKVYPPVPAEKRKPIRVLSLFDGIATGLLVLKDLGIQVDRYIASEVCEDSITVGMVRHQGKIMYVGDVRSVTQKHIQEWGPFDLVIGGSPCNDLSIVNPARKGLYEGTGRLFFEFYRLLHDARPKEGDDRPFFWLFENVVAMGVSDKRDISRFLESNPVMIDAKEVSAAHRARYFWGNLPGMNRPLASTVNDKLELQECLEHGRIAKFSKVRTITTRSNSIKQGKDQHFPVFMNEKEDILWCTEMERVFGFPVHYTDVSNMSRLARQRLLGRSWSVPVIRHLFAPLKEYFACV
human DNMT3a/3l, sequence (Q9UJW3 whole entry partner, looked up): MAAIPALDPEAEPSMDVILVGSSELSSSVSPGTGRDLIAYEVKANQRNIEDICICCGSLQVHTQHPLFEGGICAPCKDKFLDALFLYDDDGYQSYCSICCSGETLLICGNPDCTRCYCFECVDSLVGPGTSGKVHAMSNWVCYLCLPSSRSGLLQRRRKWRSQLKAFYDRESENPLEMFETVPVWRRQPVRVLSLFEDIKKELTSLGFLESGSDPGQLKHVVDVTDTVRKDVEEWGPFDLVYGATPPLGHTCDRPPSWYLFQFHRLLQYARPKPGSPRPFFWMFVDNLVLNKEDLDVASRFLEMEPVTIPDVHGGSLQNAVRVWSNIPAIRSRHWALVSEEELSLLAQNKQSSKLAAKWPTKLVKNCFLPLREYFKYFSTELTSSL
Protocol: DNMT3a/3l Breakliqht Assay
DNMT3a/3l breaklight in vitro assays were conducted in a total volume of 50 μl in a standard 384 well format, using black non-binding surface microplates (Corning #3575). […] Negative control wells used 5 μl of DNMT3a/3l and 5 μl of oligonucleotide but also included 200 μM SAH. All reagents were made up in 1× assay buffer (20 mM Tris pH 7.4, 100 mM NaCl, 1.5 mM EDTA, 0.1 mM MgCl2, 1 mM CHAPS and 1 mM DTT). The reaction was incubated at 37° C. for 90 min and then stopped with the addition of 40 μl detection reagent. Detection reagent, made up in 1× Gla assay buffer (20 mM Tris pH 8.0, 80 mM NaCl, 0.75 mM MgCl2, 0.01% Triton X100 and 1 mM DTT) has a final concentration of 200 μM SAH (Sigma #A9384) and 0.0008 units/μl Gla1 restriction endonuclease (Sibenzyme #E494). Following addition of the detection reagent the plate was incubated in the dark at room temperature for 5 hr. Fluorescence intensity was then measured on the PHERAstar FS (BMG Labtech) at Ex 485 nm and Em 520 nm, with a gain of 400 and an integration time of 100 ms.

[4] = binned activity in either the breaklight or the SPA assay, read-out: DNMT1 BioChemical (pIC50 category) (converted)
[5] = binned activity in either the breaklight or the SPA assay

Structure (SMILES): Nc1ncn([C@H]2C[C@H](O)[C@@H](CO)O2)c(=O)n1 [5-aza-2′-deoxycytidine (decitabine), 5-aza-2′-deoxycytidine]
induction of fetal hemoglobin [1]: known inducers of fetal hemoglobin
fetal hemoglobin in patients [2]: caused increases in fetal hemoglobin

Structure (SMILES): Nc1ncn([C@@H]2O[C@H](CO)[C@@H](O)[C@H]2O)c(=O)n1 [5-azacytidine]
induction of fetal hemoglobin [1]: known inducers of fetal hemoglobin
fetal hemoglobin in patients [2]: caused increases in fetal hemoglobin

Structure (SMILES): CCc1c(C#N)c(SC(C(N)=O)c2ccccc2)nc(N(C)CC(N)=O)c1C#N (stereo not drawn) [Example 145, 2-((6-((2-Amino-2-oxoethyl)(methyl)amino)-3,5-dicyano-4-ethylpyridin-2-yl)thio)-2-phenylacetamide]
pEC50 (MV-4-11 AML cells): > 6.50
EC50 [3]: < 0.316 µM
DNMT1 BioChemical (pIC50 category) (DNMT1; [5]): D (Category D: ≥6.5)

Structure (SMILES): N#Cc1c(SC(C(N)=O)c2ccccc2)nc(N2CCCC(O)C2)c(C#N)c1C1CC1 (stereo not drawn) [Example 164, 2-(3,5-Dicyano-4-cyclopropyl-6-(3-hydroxypiperidin-1-yl)pyridin-2-ylthio)-2-phenylacetamide]
pEC50 (MV-4-11 AML cells): 4.50 to 6.00
EC50 [3]: 0.316 to 1 µM
IC50 (DNMT1; [4]): 0.316 to 1 µM

More lines, now with the values ahead:

pIC50 (DNMT3B): < 3.30
pEC50 (MV-4-11 AML cells): 6.00 to 6.50
EC50 [3]: < 0.316 µM
Structure (SMILES): CCc1c(C#N)c(S[C@@H](C(N)=O)c2ccccc2)nc(N(C)C)c1C#N [Example 64, (R)-2-((3,5-dicyano-6-(dimethylamino)-4-ethylpyridin-2-yl)thio)-2-phenylacetamide]

pIC50 (DNMT3B): < 3.30
pEC50 (MV-4-11 AML cells): 4.50 to 6.00
IC50 (DNMT1; [4]): 0.316 to 1 µM
IC50 (DNMT1; breaklight assay and/or SPA assay, repeated experimental runs, read-out: average pIC50 against DNMT1 (converted)): 0.316 to 1 µM
pIC50 (human DNMT3a/3l): < 3.30
Structure (SMILES): N#Cc1c(SC(C(N)=O)c2ccccc2)nc(N2CCOCC2)c(C#N)c1C1CC1 (stereo not drawn) [Example 130, 2-[(3,5-Dicyano-4-cyclopropyl-6-morpholino-2-pyridyl)sulfanyl]-2-phenyl-acetamide]

pEC50 (MV-4-11 AML cells): 6.00 to 6.50
EC50 [3]: < 0.316 µM
DNMT1 BioChemical (pIC50 category) (DNMT1; [5]): D (Category D: ≥6.5)
Structure (SMILES): CCc1c(C#N)c(SC(C(N)=O)c2ccccc2)nc(N2CCCN(CCO)CC2)c1C#N (stereo not drawn) [Example 318, 2-((3,5-Dicyano-4-ethyl-6-(4-(2-hydroxyethyl)-1,4-diazepan-1-yl)pyridin-2-yl)thio)-2-phenylacetamide]
